Measured values published in patent US8772504B2, “Substituted benzoxazole, benzimidazole, oxazolopyridine and imidazopyridine derivatives as gamma secretase modulators” (Janssen Pharmaceuticals, Inc., priority 2009, dated 2014).

How the values were obtained:
Type in all cases: cell-based
Aβ42 [1] = assay: Screening for γ-secretase-modulating activity, Method 1: Aβ42 sandwich ELISA on SKNBE2 cell media; conditions: SKNBE2 cells carrying APP 695 wild type
In short: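 SKNBE2 cells expressing wild-type APP695 were treated with compound for 18 h in Ultraculture/1% glutamine. Secreted Aβ42 was quantified by sandwich ELISA (C-terminal capture, biotinylated 3D6, TMB, 450 nm), with WST-1 used as a toxicity check. IC50 was derived from 4-parameter fits of % inhibition or % of untreated control.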

Aβtotal = assay: Screening for γ-secretase-modulating activity, Method 2: Aβtotal Alphalisa on SKNBE2 cell supernatant; conditions: Method 2, Table 3c, SKNBE2 cells carrying APP 695 wild type, overnight incubation
In short: (§1)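 SKNBE2 cells expressing wild-type APP695, plated at 10^4 cells/well with compound at several concentrations and incubated overnight at 37° C. Aβ42 (C-terminal capture, N-terminal biotinylated detection) and Aβtotal (N-terminal/4G8 pair) measured in supernatant by AlphaLISA. IC50 from 4-parameter fit of percent of compound-free control.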

Aβ42 [2] = assay: Screening for γ-secretase-modulating activity, Method 2: Aβ42 Alphalisa on SKNBE2 cell supernatant; conditions: Method 2, Table 3c, SKNBE2 cells carrying APP 695 wild type, overnight incubation
In short: as §1

[3] = Homo sapiens, Table 3a, 18 hours, XLfit, top/bottom fixed to 100 and 0, hill slope 1
[4] = Homo sapiens, Table 3b, non-linear regression of % of control, averaged IC50 values
[5] = Table 3a, 18 hours, XLfit, top/bottom fixed to 100 and 0, hill slope 1
[6] = Table 3b, non-linear regression of % of control, averaged IC50 values

SMILES | IC50 (Aβ42 [1]; [3]) | IC50 (Aβ42 [1]; [4]) | IC50 (Aβtotal; Homo sapiens) | IC50 (Aβ42 [2]; Homo sapiens) | IC50 (Aβ42 [1]; [5]) | IC50 (Aβ42 [1]; [6]) | IC50 (Aβtotal) | IC50 (Aβ42 [2])
COc1cc(Nc2cccc3c2nc(-c2ccc(F)cc2)n3C)ccc1-n1cnc(C)c1 [Compound 1] | 22 nM | 21 nM | 590 nM | 16 nM | – | – | – | –
COc1cc(Nc2cccc3c2nc(-c2ccc(F)cc2)n3C)ccc1-n1cnc(C)n1 [Compound 4] | 23 nM | 22 nM | > 10000 nM | 27 nM | – | – | – | –
COc1cc(Nc2nccc3c2nc(-c2ccc(F)cc2)n3C)ccc1-n1cnc(C)c1 [Compound 8] | 22 nM | 22 nM | > 10000 nM | 17 nM | – | – | – | –
COc1nc(Nc2cccc3c2nc(-c2ccc(F)cc2)n3C)ccc1-n1cnc(C)c1 [Compound 15] | 6 nM | 8 nM | 7940 nM | 6 nM | – | – | – | –
CCn1c(CC2CC2)nc2c(Nc3ccc(-n4cnc(C)c4)c(OC)c3)cccc21 [Compound 36] | – | – | – | – | 31 nM | 28 nM | 7410 nM | 78 nM
COc1cc(Nc2cccc3c2nc(Oc2ccccc2)n3C)ccc1-n1cnc(C)c1 [Compound 61] | – | – | – | – | 63 nM | 59 nM | 8510 nM | 141 nM
Cc1cn(-c2ccc(Nc3cccc4c3nc(-c3ccc(F)cc3)n4C)cc2F)cn1 [Compound 67] | – | – | – | – | 12 nM | 8 nM | > 10000 nM | 36 nM
Cc1ncn(-c2ccc(Nc3cccc4c3nc(-c3ccc(F)cc3)n4C(C)C)cc2)n1.Cl.Cl [Compound 73] | – | – | – | – | 96 nM | 89 nM | > 10000 nM | 288 nM
COc1cc(Nc2cccc3c2nc(-c2ccc(F)cc2)n3C(C)C)ccc1-n1cnc(C)n1.Cl.Cl [Compound 75] | – | – | – | – | 19 nM | 19 nM | 7760 nM | 45 nM

Further lines, results first:

IC50 (Aβ42 [1]; [3]) | IC50 (Aβ42 [1]; [4]) | IC50 (Aβtotal; Homo sapiens) | IC50 (Aβ42 [2]; Homo sapiens) | IC50 (Aβ42 [1]; [5]) | IC50 (Aβ42 [1]; [6]) | IC50 (Aβtotal) | IC50 (Aβ42 [2]) | SMILES
– | – | – | – | 48 nM | 46 nM | > 10000 nM | 72 nM | Cc1ncn(-c2ccc(Nc3cccc4c3nc(-c3ccc(F)cc3)n4C(C)C)cn2)n1 [Compound 76]
– | – | – | – | 129 nM | 129 nM | 4270 nM | 178 nM | COc1cc(Nc2nccc3c2nc(-c2ccc(F)cc2)n3C)ccc1-n1cnc(C)n1 [Compound 92]
4 nM | 18 nM | > 10000 nM | 20 nM | – | – | – | – | COc1cc(Nc2cc(C(C)C)nc3c2nc(-c2ccc(F)cc2)n3C)ccc1-n1cnc(C)n1 [Compound 110]
10 nM | 54 nM | 3890 nM | 21 nM | – | – | – | – | COc1cc(-c2nc3c(Nc4ccc(-n5cnc(C)n5)c(OC)c4)nccc3n2C)ccc1Cl [Compound 114]
– | – | – | – | 2 nM | – | > 10000 nM | 2 nM | COc1nc(Nc2cc(F)cc3c2nc(-c2ccc(F)cc2)n3C)ccc1-n1cnc(C)c1 [Compound 115]
– | – | – | – | – | 69 nM | > 10000 nM | 129 nM | COc1cc(Nc2nccc3c2nc(-c2ccccc2C(F)(F)F)n3C)ccc1-n1cnc(C)n1 [Compound 130]
– | – | – | – | – | 32 nM | > 10000 nM | 46 nM | COc1cc(Nc2nc(C)cc3c2nc(-c2ccc(F)cc2)n3C)ccc1-n1cnc(C)n1 [Compound 164]
